Laboratory results published in BindingDB's records for doi:10.1016/j.bmcl.2005.02.084 (Bristol-Myers Squibb Pharmaceutical Research Institute, 2005).

Test: Inhibitory concentration in CCR4-transfected murine pre-B L1.2 cells (chemotaxis assay)

IC50: 5 µM
Compound: CCN(CC)CCCC(C)Nc1nccc(NCc2ccc(Cl)cc2Cl)n1 (stereo unspecified) [N*4*-(2,4-Dichloro-benzyl)-N*2*-(4-diethylamino-1-methyl-butyl)-pyrimidine-2,4-diamine]
